Data from ChEMBL document CHEMBL4706524, “Discovery of sulfonyl hydrazone derivative as a new selective PDE4A and PDE4D inhibitor by lead-optimization approach on the prototype LASSBio-448: In vitro and in vivo preclinical studies” (Eur J Med Chem, 2020).

Tests used:
[1] = target: 3',5'-cyclic-AMP phosphodiesterase 4B (Homo sapiens, UniProt Q07343); experiment: Inhibition of human recombinant PDE4B1 using FAM-cAMP as substrate at 10 uM measured after 1 hr by IMAP TR-FRET assay
Homo sapiens [2] = organism: Homo sapiens; experiment: Inhibition of human recombinant PDE4A1A using FAM-cAMP as substrate at 10 uM measured after 1 hr by IMAP TR-FRET assay
[3] = Chemical stability of the compound in KCl/HCl buffer at pH 2.0 measured upto 120 mins by HPLC-DAD analysis; conditions: pH 2, 2 h
[4] = Chemical stability of the compound in phosphate buffer at pH 7.4 measured upto 120 mins by HPLC-DAD analysis; format: physicochemical; conditions: pH 7.4, 2 h
[5] = target: 3',5'-cyclic-AMP phosphodiesterase 4C (Homo sapiens, UniProt Q08493); experiment: Inhibition of human recombinant PDE4C using FAM-cAMP as substrate at 10 uM measured after 1 hr by IMAP TR-FRET assay
Chain of 3',5'-cyclic-AMP phosphodiesterase 4C (Q08493 whole entry): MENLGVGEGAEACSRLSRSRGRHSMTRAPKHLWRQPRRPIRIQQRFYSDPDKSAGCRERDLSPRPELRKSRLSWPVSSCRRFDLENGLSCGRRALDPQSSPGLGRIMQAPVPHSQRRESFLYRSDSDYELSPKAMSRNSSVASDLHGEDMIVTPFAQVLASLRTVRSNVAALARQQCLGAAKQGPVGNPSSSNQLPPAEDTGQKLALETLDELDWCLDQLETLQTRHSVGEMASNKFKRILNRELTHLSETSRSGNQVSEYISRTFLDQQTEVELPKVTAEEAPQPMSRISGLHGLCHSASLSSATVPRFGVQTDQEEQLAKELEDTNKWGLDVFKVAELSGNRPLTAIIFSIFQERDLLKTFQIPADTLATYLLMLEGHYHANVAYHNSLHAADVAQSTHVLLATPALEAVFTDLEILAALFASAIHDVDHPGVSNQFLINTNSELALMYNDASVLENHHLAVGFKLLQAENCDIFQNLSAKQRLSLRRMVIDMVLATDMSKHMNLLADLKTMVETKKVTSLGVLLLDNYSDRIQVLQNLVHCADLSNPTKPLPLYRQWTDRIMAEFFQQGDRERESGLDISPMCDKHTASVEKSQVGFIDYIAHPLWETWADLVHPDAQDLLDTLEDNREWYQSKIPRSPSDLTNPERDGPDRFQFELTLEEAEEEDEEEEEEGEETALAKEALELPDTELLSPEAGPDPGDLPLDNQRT

[6] = target: T1, 3',5'-cyclic-AMP phosphodiesterase 4D (Homo sapiens, UniProt Q08499); experiment: Inhibition of human recombinant PDE4D3 using FAM-cAMP as substrate at 10 uM measured after 1 hr by IMAP TR-FRET assay
T1 sequence (Q08499 whole entry): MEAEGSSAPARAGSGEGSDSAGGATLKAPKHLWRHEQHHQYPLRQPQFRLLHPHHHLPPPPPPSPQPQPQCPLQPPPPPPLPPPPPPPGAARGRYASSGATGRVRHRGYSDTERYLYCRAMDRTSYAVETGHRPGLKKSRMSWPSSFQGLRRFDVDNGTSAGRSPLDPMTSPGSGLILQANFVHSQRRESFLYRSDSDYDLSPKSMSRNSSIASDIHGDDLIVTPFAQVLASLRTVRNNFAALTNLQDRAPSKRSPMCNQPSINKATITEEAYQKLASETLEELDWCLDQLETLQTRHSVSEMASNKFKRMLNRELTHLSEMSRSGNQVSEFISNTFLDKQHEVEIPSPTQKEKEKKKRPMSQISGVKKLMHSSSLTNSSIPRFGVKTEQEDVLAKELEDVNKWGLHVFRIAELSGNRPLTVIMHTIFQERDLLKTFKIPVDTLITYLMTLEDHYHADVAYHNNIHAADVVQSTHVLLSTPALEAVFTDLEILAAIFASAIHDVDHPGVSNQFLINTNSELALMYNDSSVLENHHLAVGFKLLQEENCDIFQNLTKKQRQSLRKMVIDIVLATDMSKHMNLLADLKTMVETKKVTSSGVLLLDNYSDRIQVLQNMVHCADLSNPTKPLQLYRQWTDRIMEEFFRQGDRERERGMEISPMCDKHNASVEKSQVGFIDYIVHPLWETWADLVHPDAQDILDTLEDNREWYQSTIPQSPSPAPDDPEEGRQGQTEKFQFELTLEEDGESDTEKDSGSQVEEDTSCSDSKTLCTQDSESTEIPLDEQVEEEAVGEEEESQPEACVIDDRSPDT

in vitro [7] = conditions: PAMPA
in vitro [8] = conditions: PAMPA; remark: listed apart in the source
Description: Permeability of the compound by PAMPA-TGI assay

[9] = pampa, 8 h
Trachea [10] = experiment: […] activity in non-sensitized guinea pig-derived trachea assessed as decrease in CCh-induced tracheal tonic contraction in absence of functional epithelium treated with compound after contraction stabilised; format: tissue-based; conditions: Cavia porcellus
Trachea [11] = experiment: […] activity in OVA-sensitized guinea pig-derived trachea assessed as decrease in CCh-induced tracheal tonic contraction in absence of functional epithelium treated with compound after contraction stabilised; format: tissue-based; conditions: Cavia porcellus
Trachea [12] = experiment: […] activity in OVA-sensitized guinea pig-derived trachea assessed as decrease in CCh-induced tracheal tonic contraction in presence of functional epithelium treated with compound after contraction stabilised; format: tissue-based; conditions: Cavia porcellus
Trachea [13] = experiment: […] activity in non-sensitized guinea pig-derived trachea assessed as decrease in CCh-induced tracheal tonic contraction in presence of functional epithelium; format: tissue-based; conditions: Cavia porcellus
[14] = target: T1, 3',5'-cyclic-AMP phosphodiesterase 4D; experiment: Inhibition of human recombinant PDE4D3 using FAM-cAMP as substrate measured after 1 hr by IMAP TR-FRET assay
Mus musculus [15] = experiment: Antiinflammatory activity against A/J mouse assessed as decrease in LPS-induced airway hyperreactivity at 6.25 umol/kg, po treated via gavage for 1 hr before LPS stimulation measured after 24 hrs by whole body plethysmography relative to control; format: functional; conditions: 25 h
Mus musculus [16] = experiment: Antiinflammatory activity against A/J mouse assessed as decrease in LPS-induced TNFalpha production in lungs at 6.25 umol/kg, po treated via gavage for 1 hr before LPS stimulation and measured after 24 hrs by ELISA relative to control; format: functional; conditions: 25 h
Mus musculus [17] = experiment: Antiinflammatory activity against A/J mouse assessed as decrease in LPS-induced airway hyperreactivity at 25 umol/kg, po treated via gavage for 1 hr before LPS stimulation measured after 24 hrs by whole body plethysmography relative to control; format: functional; conditions: 25 h
Homo sapiens [18] = organism: Homo sapiens; experiment: Inhibition of human recombinant PDE4A1A using FAM-cAMP as substrate measured after 1 hr by IMAP TR-FRET assay relative to control
Mus musculus [19] = experiment: Antiinflammatory activity against A/J mouse assessed as decrease in LPS-induced TNFalpha production in lungs at 25 umol/kg, po treated via gavage for 1 hr before LPS stimulation and measured after 24 hrs by ELISA relative to control; format: functional; conditions: 25 h
[20] = target: T1, 3',5'-cyclic-AMP phosphodiesterase 4D; experiment: Inhibition of human recombinant PDE4D3 using FAM-cAMP as substrate measured after 1 hr by IMAP TR-FRET assay relative to control
[21] = Inhibition of human recombinant PDE4A1A using FAM-cAMP as substrate measured after 1 hr by IMAP TR-FRET assay

Chain of 3',5'-cyclic-AMP phosphodiesterase 4B (Q07343 whole entry): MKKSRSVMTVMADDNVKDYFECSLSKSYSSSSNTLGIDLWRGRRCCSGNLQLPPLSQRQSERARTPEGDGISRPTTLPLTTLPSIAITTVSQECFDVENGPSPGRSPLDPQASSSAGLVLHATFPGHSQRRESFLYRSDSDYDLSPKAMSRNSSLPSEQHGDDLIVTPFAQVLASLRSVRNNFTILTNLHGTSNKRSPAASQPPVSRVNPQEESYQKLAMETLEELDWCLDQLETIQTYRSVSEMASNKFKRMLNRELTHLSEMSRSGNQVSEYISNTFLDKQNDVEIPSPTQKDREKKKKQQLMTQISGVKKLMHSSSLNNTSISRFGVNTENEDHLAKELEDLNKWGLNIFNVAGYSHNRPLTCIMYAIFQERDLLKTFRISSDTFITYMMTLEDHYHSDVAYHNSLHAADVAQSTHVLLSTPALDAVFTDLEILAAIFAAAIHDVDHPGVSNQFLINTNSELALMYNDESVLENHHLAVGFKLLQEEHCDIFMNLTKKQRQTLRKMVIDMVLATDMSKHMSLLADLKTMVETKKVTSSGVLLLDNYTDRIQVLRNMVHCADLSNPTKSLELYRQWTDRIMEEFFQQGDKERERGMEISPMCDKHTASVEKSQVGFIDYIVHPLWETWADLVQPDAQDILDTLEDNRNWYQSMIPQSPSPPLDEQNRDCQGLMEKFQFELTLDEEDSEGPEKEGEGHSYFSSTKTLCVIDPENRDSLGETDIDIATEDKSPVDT

| Structure (SMILES) | inhibition [1] [%] | inhibition (Homo sapiens [2]) [%] | Stabilty [3] | Stabilty [4] | inhibition [5] [%] | inhibition [6] [%] | other results |
| --- | --- | --- | --- | --- | --- | --- | --- |
| COc1ccc(CCN(C)S(=O)(=O)c2ccccc2C)cc1OC | 26.5 | 25.9 | Stable | Stable | < 5 | 27.6 | – |
| CC(=O)Oc1ccccc1C(=O)O [ASPIRIN] | – | – | – | – | – | – | Papp at 8 h (in vitro [7]): 16.9 nm/s; Papp (in vitro [8]): 38 nm/s; Drug absorption [9]: 47.36% |
| O=C(O)Cc1ccccc1Nc1c(Cl)cccc1Cl [DICLOFENAC] | – | – | – | – | – | – | Drug absorption [9]: 99.28% |
| COc1ccc(C2CNC(=O)C2)cc1OC1CCCC1 (centres undefined) [ROLIPRAM] | – | – | – | – | – | – | EC50 (Trachea [10]): 0.0646 µM; EC50 (Trachea [11]): 0.0692 µM; EC50 (Trachea [12]): 0.0316 µM; EC50 (Trachea [13]): 0.0263 µM |
| COc1ccc(S(=O)(=O)NCCc2ccc(OC)c(OC)c2)cc1 | < 5 | 11 | Stable | Stable | 20.7 | 23.8 | – |
| COc1ccc(S(=O)(=O)N/N=C/c2ccc(OC)c(OC)c2)cc1 | < 5 | 35.2 | Unstable | Stable | 40.2 | 20.2 | – |
| COc1ccc(CCNS(=O)(=O)c2ccc([N+](=O)[O-])cc2)cc1OC | 13.8 | < 5 | Stable | Stable | < 5 | < 5 | – |
| C[C@]12C=CC(=O)C=C1CC[C@@H]1[C@@H]2C(=O)C[C@@]2(C)[C@H]1CC[C@]2(O)C(=O)CO [PREDNISONE] | – | – | – | – | – | – | Papp at 8 h (in vitro [7]): 30.9 nm/s |
| COc1ccc(CCNS(=O)(=O)c2ccc(OC)c(OC)c2)cc1OC | < 5 | 11.3 | Stable | Stable | 26 | 13.6 | – |
| COc1ccc(CCNS(=O)(=O)c2ccc(-c3ccccc3)cc2)cc1OC | < 5 | 14.8 | Stable | Stable | < 5 | 10.8 | – |
| COc1ccc(/C=N/NS(=O)(=O)c2cc3c(cc2C)OCO3)cc1OC | < 5 | < 5 | Unstable | Stable | < 5 | 8.8 | – |
| COc1ccc(/C=N/NS(=O)(=O)c2ccccc2C)cc1OC | < 5 | 8 | Unstable | Stable | 19.5 | 15.9 | – |
| COc1ccc(CCN(C)S(=O)(=O)c2ccc(OC)c(OC)c2)cc1OC | 12 | 36.1 | Stable | Stable | 16.4 | 31.1 | – |
| COc1ccc(CCN(C)S(=O)(=O)c2ccc3ccccc3c2)cc1OC | 12.2 | 89.9 | Stable | Stable | 30.1 | 50.1 | IC50 [14]: 35.3 µM; inhibition in vivo at 6.25 µmol/kg (Mus musculus [15]): 95%; inhibition in vivo at 6.25 µmol/kg (Mus musculus [16]): 0%; inhibition in vivo at 25 µmol/kg (Mus musculus [17]): 97%; Emax (Homo sapiens [18]): 97%; inhibition in vivo at 25 µmol/kg (Mus musculus [19]): 58.9%; Emax [20]: 63%; IC50 [21]: 3 µM |
| COc1ccc(/C=N/NS(=O)(=O)c2ccccc2)cc1OC | < 5 | 11.9 | Unstable | Stable | 14.6 | < 5 | – |
| COc1ccc(CCNS(=O)(=O)c2ccc3ccccc3c2)cc1OC | < 5 | 30.4 | Stable | Stable | 12.1 | 9.1 | – |
